The text below walks through data of patent publication US20170008888A1 (KYORIN PHARMACEUTICAL CO., LTD., priority 2014, published 2017).

Structures are written as SMILES. pIC50: −log10 of the molar value.

Format in all cases: binding
In one experiment the target is T1, TAO2 (Homo sapiens, UniProt Q9UL54).
T1 construct: screened for activity against several kinases in Jurkat cells; endogenous in cells; host or cells: Jurkat cell lysate
T1 sequence (Q9UL54 1-1235): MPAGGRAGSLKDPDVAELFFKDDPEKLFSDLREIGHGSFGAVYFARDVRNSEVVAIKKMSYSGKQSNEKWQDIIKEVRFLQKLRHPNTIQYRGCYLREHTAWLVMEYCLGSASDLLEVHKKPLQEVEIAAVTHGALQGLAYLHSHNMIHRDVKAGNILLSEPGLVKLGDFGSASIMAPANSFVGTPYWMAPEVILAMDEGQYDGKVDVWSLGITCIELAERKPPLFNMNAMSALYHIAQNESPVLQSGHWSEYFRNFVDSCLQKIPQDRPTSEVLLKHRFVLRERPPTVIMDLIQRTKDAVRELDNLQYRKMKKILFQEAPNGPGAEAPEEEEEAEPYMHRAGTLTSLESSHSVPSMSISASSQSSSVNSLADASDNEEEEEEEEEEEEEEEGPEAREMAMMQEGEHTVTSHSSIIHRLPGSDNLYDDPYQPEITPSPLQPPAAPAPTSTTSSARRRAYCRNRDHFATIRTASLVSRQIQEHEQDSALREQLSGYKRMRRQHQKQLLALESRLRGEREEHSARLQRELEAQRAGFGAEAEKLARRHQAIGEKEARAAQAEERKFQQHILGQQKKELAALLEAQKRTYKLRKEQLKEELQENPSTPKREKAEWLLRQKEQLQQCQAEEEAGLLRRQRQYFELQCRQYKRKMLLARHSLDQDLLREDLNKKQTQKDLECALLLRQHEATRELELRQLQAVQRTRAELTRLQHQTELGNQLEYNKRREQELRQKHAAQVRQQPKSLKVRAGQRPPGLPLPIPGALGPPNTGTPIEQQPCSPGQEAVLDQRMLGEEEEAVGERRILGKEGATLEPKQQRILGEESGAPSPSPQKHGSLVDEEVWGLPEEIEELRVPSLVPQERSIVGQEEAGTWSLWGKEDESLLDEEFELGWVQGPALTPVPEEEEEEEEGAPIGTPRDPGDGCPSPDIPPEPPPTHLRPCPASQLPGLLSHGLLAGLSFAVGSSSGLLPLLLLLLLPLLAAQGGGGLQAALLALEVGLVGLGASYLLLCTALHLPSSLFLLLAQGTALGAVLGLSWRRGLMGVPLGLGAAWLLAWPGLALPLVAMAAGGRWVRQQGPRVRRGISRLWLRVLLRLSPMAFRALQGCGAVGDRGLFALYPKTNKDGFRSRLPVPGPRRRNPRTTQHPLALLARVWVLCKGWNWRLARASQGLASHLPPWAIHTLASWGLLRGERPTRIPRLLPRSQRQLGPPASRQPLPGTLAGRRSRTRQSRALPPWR
The experiment can be described thus: Probe-based (AX9989) kinase profiling in Jurkat lysate: TAO2. Particulars: read-out: Kinase inhibition % at indicated screening concentration: TAO2; for inhibition at 1 µM: screening concentration 1.0 μM; for inhibition at 0.1 µM: screening concentration 0.1 μM. Summed up:
(§1)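 Percent inhibition was derived from reduced LC/MS fragment intensities of probe-labeled peptides relative to compound-free controls. Before labeling with 5 μM AX9989, Mn2+-supplemented (20 mM) Jurkat lysate was exposed to compound for 15 min at room temperature.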

For a further experiment, the target named is T2, AurA (Homo sapiens, UniProt O14965).
T2 construct: screened for activity against several kinases in Jurkat cells; endogenous in cells; host or cells: Jurkat cell lysate
T2 sequence (O14965 1-403): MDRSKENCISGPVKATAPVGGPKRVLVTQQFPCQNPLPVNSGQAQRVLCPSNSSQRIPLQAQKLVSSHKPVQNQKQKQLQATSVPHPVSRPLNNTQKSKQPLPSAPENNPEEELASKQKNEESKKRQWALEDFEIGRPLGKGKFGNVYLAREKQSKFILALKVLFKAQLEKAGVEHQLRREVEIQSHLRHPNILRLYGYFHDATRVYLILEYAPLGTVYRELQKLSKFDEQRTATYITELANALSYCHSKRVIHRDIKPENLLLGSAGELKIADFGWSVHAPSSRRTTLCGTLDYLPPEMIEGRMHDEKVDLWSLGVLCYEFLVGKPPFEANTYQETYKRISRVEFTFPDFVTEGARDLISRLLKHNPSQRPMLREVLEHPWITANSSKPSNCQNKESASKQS
The experiment can be described thus: Probe-based (AX9989) kinase profiling in Jurkat lysate: AurA. Particulars: read-out: Kinase inhibition % at indicated screening concentration: AurA; for inhibition at 1 µM: screening concentration 1.0 μM; for inhibition at 0.1 µM: screening concentration 0.1 μM. Summed up:
as §1

A further experiment relates to AMPKa1 or AMPKa2. The experiment can be described thus: Probe-based (AX9989) kinase profiling in Jurkat lysate: AMPKa1 or AMPKa2. Summed up:
as §1

The target of the next experiment is T3, ERK5 (Homo sapiens, UniProt Q13164).
T3 construct: screened for activity against several kinases in Jurkat cells; endogenous in cells; host or cells: Jurkat cell lysate
T3 sequence (Q13164 whole entry): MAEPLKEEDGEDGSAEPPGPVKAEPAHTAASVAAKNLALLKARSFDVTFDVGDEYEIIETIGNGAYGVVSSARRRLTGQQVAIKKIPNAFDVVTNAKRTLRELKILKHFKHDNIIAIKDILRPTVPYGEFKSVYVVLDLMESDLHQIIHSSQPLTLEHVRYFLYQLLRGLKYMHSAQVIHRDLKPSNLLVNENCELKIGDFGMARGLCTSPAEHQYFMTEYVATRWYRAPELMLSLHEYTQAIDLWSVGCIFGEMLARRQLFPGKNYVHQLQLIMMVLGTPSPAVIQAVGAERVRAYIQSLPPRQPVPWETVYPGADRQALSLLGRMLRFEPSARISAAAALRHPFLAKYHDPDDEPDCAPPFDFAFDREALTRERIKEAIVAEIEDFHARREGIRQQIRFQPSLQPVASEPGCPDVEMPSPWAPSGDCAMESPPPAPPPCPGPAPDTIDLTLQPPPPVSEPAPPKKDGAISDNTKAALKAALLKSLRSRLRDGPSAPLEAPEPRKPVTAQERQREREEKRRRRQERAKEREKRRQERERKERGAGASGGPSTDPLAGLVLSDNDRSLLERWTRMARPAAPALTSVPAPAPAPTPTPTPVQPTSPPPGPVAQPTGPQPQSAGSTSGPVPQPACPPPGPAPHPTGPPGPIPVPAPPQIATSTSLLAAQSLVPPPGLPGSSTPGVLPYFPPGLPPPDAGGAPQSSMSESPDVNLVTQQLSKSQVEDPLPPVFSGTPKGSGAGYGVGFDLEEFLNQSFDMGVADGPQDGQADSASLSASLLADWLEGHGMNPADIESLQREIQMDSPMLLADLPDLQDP
The experiment can be described thus: Probe-based (AX9989 acyl phosphate ATP probe) kinase profiling in Jurkat lysate: ERK5. Particulars: for pIC50: calculated from percent inhibition of AX9989 labeling and the screening concentration, Jurkat lysate; for inhibition at 1 µM: screening concentration 1.0 μM; for inhibition at 1 µM / inhibition at 0.1 µM: read-out: Kinase inhibition % at indicated screening concentration: ERK5; for inhibition at 0.1 µM: screening concentration 0.1 μM. In short, it runs like this:
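ERK5 IC50 values came from percent inhibition at the screening concentration, measured as loss of LC/MS signal of probe-labelled active-site peptides. Compound was added for 15 min at room temperature to Jurkat lysate (5 mg/ml, 20 mM MnCl2) before labelling with AX9989 ATP acyl phosphate probe at 5 μM.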

Consider `CCOc1cc(C(=O)NCCO)ccc1Nc1cc2c(cn1)N(C)C(=O)c1ccccc1N2C` [Compound 66], for which the inhibition at 1 µM is not above 35% on TAO2, not above 35% at AurA and 50 to 75% on ERK5. In addition, the “Kinase inhibition % at indicated screening concentration: AMPKa1 or AMPKa2” value (“Kinase inhibition %” below) in the experiment with AMPKa1 or AMPKa2 (screening concentration 1.0 μM) is reported as “E (E is ≦35%)”. For the same compound, the pIC50 at ERK5 is less than 6.30.

Consider `CCOc1cc(C(=O)N2CC[C@@H](N(CC)CC)C2)ccc1Nc1cc2c(cn1)N(C)C(=O)c1occc1N2C` [Compound 67], for which the inhibition at 0.1 µM at TAO2 is not above 35%; at AurA it was not above 35%; on ERK5, more than 90%. Besides, the “Kinase inhibition %” value in the experiment on AMPKa1 or AMPKa2 (screening concentration 0.1 μM) is reported as “E (E is ≦35%)”. Moreover, on ERK5, the negative logarithm of the IC50 (pIC50) was not below 7.30.

Regarding `CCOc1cc(C(=O)N[C@@H]2CCCOC2)ccc1Nc1cc2c(cn1)N(C)C(=O)c1ccccc1N2C` [Compound 69], the inhibition at 1 µM on TAO2 was not above 35%; at AurA, not above 35%; on ERK5, 50 to 75%. Also, the “Kinase inhibition %” value in the experiment on AMPKa1 or AMPKa2 (screening concentration 1.0 μM) is “E (E is ≦35%)”. Besides, on ERK5, the pIC50 was 6.30 to 7.00.

In the case of `COc1cc(C(=O)N2CCC(N(C)C)C2)ccc1Nc1cc2c(cn1)N(C)C(=O)c1ccccc1N2C` (stereo not shown) [Compound 70], the inhibition at 0.1 µM at TAO2 is not above 35%; at AurA, not above 35%; on ERK5, 50 to 75%. In addition, the “Kinase inhibition %” value with AMPKa1 or AMPKa2 (screening concentration 0.1 μM) is recorded as “E (E is ≦35%)”. The negative logarithm of the IC50 (pIC50) on ERK5 was not below 7.30.

On to `CCOc1cc(C(=O)N2CCCNCC2)ccc1Nc1cc2c(cn1)N(C)C(=O)c1ccccc1N2C` [Compound 71], for which the inhibition at 1 µM at TAO2 is not above 35%; at AurA, not above 35%; at ERK5, more than 90%. In addition, the “Kinase inhibition %” value in the experiment with AMPKa1 or AMPKa2 (screening concentration 1.0 μM) is “E (E is ≦35%)”. The negative-log IC50 (pIC50) on ERK5 is not below 7.30.

On to `CCOc1cc(C(=O)N2CCC(F)C2)ccc1Nc1cc2c(cn1)N(C)C(=O)c1occc1N2C` (stereo not shown) [Compound 72], for which the inhibition at 0.1 µM at TAO2 is not above 35%; at AurA, not above 35%; at ERK5 it was 75 to 90%. Also, the “Kinase inhibition %” value with AMPKa1 or AMPKa2 (screening concentration 0.1 μM) is “E (E is ≦35%)”. On ERK5, the pIC50 is not below 7.30.

On to `COc1cc(NS(C)(=O)=O)ccc1Nc1cc2c(cn1)N(C)C(=O)c1ccccc1N2C` [Compound 73], for which the inhibition at 1 µM on TAO2 was not above 35%; at AurA it was not above 35%; at ERK5, 75 to 90%. Also, the “Kinase inhibition %” value in the experiment with AMPKa1 or AMPKa2 (screening concentration 1.0 μM) was “E (E is ≦35%)”. Moreover, the pIC50 on ERK5 is 6.30 to 7.00.

With `CN1C(=O)c2ccccc2N(C)c2cc(N[C@H]3CC[C@H](N4CCCC4)CC3)ncc21` [Compound 74], the figures for the inhibition at 1 µM at TAO2, at AurA and at ERK5 were not above 35%, not above 35% and 50 to 75%, respectively. In addition, the “Kinase inhibition %” value in the experiment on AMPKa1 or AMPKa2 (screening concentration 1.0 μM) is reported as “E (E is ≦35%)”. The pIC50 at ERK5 was 6.30 to 7.00.

Regarding `CCOc1cc(C(=O)N2CC[C@H](N(C)C)C2)ccc1Nc1cc2c(cn1)N(C)C(=O)c1ccccc1N2C` [Compound 75], the values for the inhibition at 1 µM at TAO2, at AurA and on ERK5 were not above 35%, not above 35% and more than 90%, respectively. Further, in the experiment on AMPKa1 or AMPKa2 (screening concentration 1.0 μM), the “Kinase inhibition %” value was “E (E is ≦35%)”. Also, the negative-log IC50 (pIC50) at ERK5 is not below 7.30.

With `CCOc1cc(C(=O)NC2CCOCC2)ccc1Nc1cc2c(cn1)N(C)C(=O)c1ccccc1N2C` [Compound 80], the values for the inhibition at 1 µM at TAO2, at AurA and on ERK5 were not above 35%, not above 35% and 50 to 75%, respectively. For the same compound, the “Kinase inhibition %” value in the experiment with AMPKa1 or AMPKa2 (screening concentration 1.0 μM) was “E (E is ≦35%)”. At ERK5, the negative logarithm of the IC50 (pIC50) is 6.30 to 7.00.

In the case of `CCOc1cc(C(=O)N2CCNC[C@H]2C)ccc1Nc1cc2c(cn1)N(C)C(=O)c1ccccc1N2C` [Compound 82], the inhibition at 0.1 µM was not above 35% on TAO2, not above 35% on AurA and 75 to 90% on ERK5. Also, the “Kinase inhibition %” value in the experiment with AMPKa1 or AMPKa2 (screening concentration 0.1 μM) is reported as “E (E is ≦35%)”. Besides, the pIC50 at ERK5 was not below 7.30.

For the compound `CCOc1cc(C(=O)NCCOC)ccc1Nc1cc2c(cn1)N(C)C(=O)c1ccccc1N2C` [Compound 83], the inhibition at 1 µM was not above 35% on TAO2, not above 35% on AurA and 75 to 90% at ERK5. For the same compound, in the experiment with AMPKa1 or AMPKa2 (screening concentration 1.0 μM), the “Kinase inhibition %” value was “E (E is ≦35%)”. Also, at ERK5, the pIC50 was 6.30 to 7.00.

In the case of `CCOc1cc(C(=O)NCCn2ccnc2)ccc1Nc1cc2c(cn1)N(C)C(=O)c1ccccc1N2C` [Compound 84], the inhibition at 1 µM on TAO2 was not above 35%; on AurA, not above 35%; at ERK5, more than 90%. In addition, the “Kinase inhibition %” value in the experiment with AMPKa1 or AMPKa2 (screening concentration 1.0 μM) was “E (E is ≦35%)”. Also, the negative logarithm of the IC50 (pIC50) at ERK5 was 7.00 to 7.30.

Turning to `CCOc1cc(C(=O)N(C)CCN(C)C)ccc1Nc1cc2c(cn1)N(C)C(=O)c1ccccc1N2C` [Compound 88], the figures for the inhibition at 0.1 µM on TAO2, at AurA and at ERK5 were not above 35%, not above 35% and more than 90%, respectively. The “Kinase inhibition %” value in the experiment on AMPKa1 or AMPKa2 (screening concentration 0.1 μM) is “E (E is ≦35%)”. The pIC50 at ERK5 was not below 7.30.

In the case of `CCOc1cc(C(=O)N2CCC(N3CCCC3)CC2)ccc1Nc1cc2c(cn1)N(C)C(=O)c1occc1N2C` [Compound 91, 6-((2-Ethoxy-4-(4-(pyrrolidin-1-yl)piperidine-1-carbonyl)phenyl)amino)-4,9-dimethyl-4H-furo[3,2-e]pyrido[3,4-b][1,4]diazepin-10(9H)-one], the inhibition at 0.1 µM is not above 35% at TAO2, not above 35% on AurA and more than 90% at ERK5. For the same compound, the “Kinase inhibition %” value in the experiment on AMPKa1 or AMPKa2 (screening concentration 0.1 μM) was “E (E is ≦35%)”. In addition, the pIC50 on ERK5 is not below 7.30.

On to `CCOc1cc(C(=O)N2CCCC(O)C2)ccc1Nc1cc2c(cn1)N(C)C(=O)c1ccccc1N2C` (stereo not shown) [Compound 93], for which the figures for the inhibition at 1 µM on TAO2, on AurA and at ERK5 were not above 35%, not above 35% and more than 90%, respectively. Also, the “Kinase inhibition %” value with AMPKa1 or AMPKa2 (screening concentration 1.0 μM) was “E (E is ≦35%)”. For the same compound, on ERK5, the negative logarithm of the IC50 (pIC50) was 7.00 to 7.30.

Take `CCOc1cc(C(=O)N2CCN(C(C)(C)C)CC2)ccc1Nc1cc2c(cn1)N(C)C(=O)c1ccccc1N2C` [Compound 94]: the inhibition at 0.1 µM on TAO2 is not above 35%; on AurA it was not above 35%; at ERK5 it was 75 to 90%. Further, the “Kinase inhibition %” value with AMPKa1 or AMPKa2 (screening concentration 0.1 μM) is on record as “E (E is ≦35%)”. At ERK5, the negative-log IC50 (pIC50) was not below 7.30.
